Results as given in US20120094384A1, “USE OF COMPOUNDS FOR DIFFERENTIATION OF CELLS” (priority 2009, published 2012).

System: mouse embryonic stem cells (mESC's)
Assay: Mouse embryonic stem cell differentiation assessed by GeneChip array (Affymetrix GeneChip Mouse Exon 1.0ST)
Type: cell-based
Settings: 0.5 μM, 96 hours, spontaneously differentiating mESC's
Procedure: Undifferentiated mouse embryonic stem cells (mESC's) were seeded at a density of 1.3×10^6 cells on 6 cm uncoated bacterial grade dishes. Spontaneous differentiation was initiated by removal of LIF from the new incubation medium, which consisted of 2% serum KO DMEM+/−AO-1-530 (0.5 μM). AO-1-530 is the same compound used in Examples 1 and 2. There were three treated and three control replicates.
Cells were incubated on a shaking platform at 37° C. for 24 hours at which time the plating media was removed and fresh medium, or AO-1-530 treated medium added as appropriate. This was repeated at 48 hours and 72 hours.
The partially-differentiated cells or embryoid bodies (EB's) were harvested at 96 hours, washed with PBS, re-suspended in Trizol and stored at −80° C. awaiting RNA extraction. The cells were subsequently thawed and RNA extracted using a standard Trizol isolation procedure with an additional clean-up performed using a Qiagen RNeasy Mini kit and DNase digestion as per the manufacturer's instructions. cRNA was prepared from the tRNA, then hybridised to the Affymetrix GeneChip Mouse Exon 1.0ST array, washed, stained then scanned.
P-value cut-off: 0.05 P-value computation: Asymptotic Multiple testing correction: Benjamini-Hochberg

## CCCCCCCCCCc1ccc2c(=O)c(O)c(-c3cc(O)c(O)c(O)c3)oc2c1 [AO1530]
  Neurod1 and Fgf4 genes relative to the control cells: increase
  remaining 6 genes (Fgf10, Bry, Podxl, Map4k1, Pak1, Eomes) relative to the control cells: decreased
T-test, Benjamini-Hochberg
  number of genes with significantly altered (P<0.05) expression compared with the controls: 315 genes
[Control] (normalized) 0.17034023
  [Drug] (normalized) Pak1: −0.2141
[Control] (normalized) 0.32084307
  [Drug] (normalized) Bry: −0.4595
[Control] (normalized) 0.32956442
  [Drug] (normalized) Podxl: −0.3278
[Control] (normalized) 0.44043383
  [Drug] (normalized) Eomes: −0.5036
[Control] (normalized) 0.50325745
  [Drug] (normalized) Fgf10: −0.5713
[Control] (normalized) −0.1732769
  [Drug] (normalized) Map4k1: 0.1637
[Control] (normalized) −0.46519312
  [Drug] (normalized) Neurod1: 0.4739
[Control] (normalized) −0.48913416
  [Drug] (normalized) Fgf4: 0.3787
[Control](raw) 394.5062
  [Drug](raw) Fgf10: 187.7
[Control](raw) 420.62076
  [Drug](raw) Neurod1: 806
[Control](raw) 814.98
  [Drug](raw) Map4k1: 1029.3136
[Control](raw) 2057.381
  [Drug](raw) Eomes: 1071.638
[Control](raw) 2079.3152
  [Drug](raw) Fgf4: 3787.6875
[Control](raw) 2240.5337
  [Drug](raw) Pak1: 1717.2704
[Control](raw) 3411.1348
  [Drug](raw) Podxl: 2162.7986
[Control](raw) 8229.497
  [Drug](raw) Bry: 4804.9707
